These results are taken from ChEMBL document CHEMBL1799962, “Indolin-2-one p38α inhibitors I: design, profiling and crystallographic binding mode” (Bioorg Med Chem Lett, 2011).

Each structure is given as a SMILES string. Converted amounts (≈) assume the structure as drawn.

Data set [1] is described as follows: Thermodynamic solubility of the compound in aqueous buffer at pH 7.4 at 37 degC by HPLC-UV analysis. Format: physicochemical. The settings on record: read-out: Therm_solubility.
Data set [2] in a line: Clearance in rat at 1 mg/kg, iv. Format: ADME, organism-based. Also noted: dose 1 mg/kg, route intravenous. To be noted: in vivo.
Data set [3] is described as follows: Apparent permeability from apical to basolateral side in human Caco2 cells at 12.5 uM. To be noted: Caco-2. It counts as ADME, cell-based.
The nature of data set [4]: Cmax in rat at 10 mg/kg, po. It counts as ADME, organism-based. The arrangement: dose 10 mg/kg, route oral. The settings on record: in vivo.
The nature of data set [5]: Apparent permeability from basolateral to apical side in human Caco2 cells at 12.5 uM. It counts as ADME, cell-based. To be noted: Caco-2.
Data set [6] can be described thus: AUC (0 to infinity) in rat at 1 mg/kg, iv. It counts as ADME, organism-based. Also noted: time infinity, dose 1 mg/kg, route intravenous. To be noted: plasma.
The nature of data set [7]: Oral bioavailability in rat at 10 mg/kg. Format: ADME, organism-based. The settings on record: in vivo.
A short description of data set [8]: Cmax in rat at 1 mg/kg, iv. Format: ADME, organism-based. Also noted: dose 1 mg/kg, route intravenous. To be noted: in vivo.
Data set [9] is described as follows: Volume of distribution at steady state in rat at 1 mg/kg, iv. It counts as ADME, organism-based. The arrangement: dose 1 mg/kg, route intravenous. The settings on record: in vivo, read-out: Vdss.
Data set [10] is described as follows: Terminal half life in rat at 1 mg/kg, iv. Format: ADME, organism-based. The arrangement: dose 1 mg/kg, route intravenous. To be noted: in vivo, read-out: beta t1/2 (converted).
Data set [11] can be described thus: Primary phase half life in rat at 1 mg/kg, iv. The settings on record: in vivo, read-out: alphat1/2. Format: ADME, organism-based. Also noted: dose 1 mg/kg, route intravenous.

As a reminder, the clearance is the rate of elimination divided by the concentration. Read a low clearance as inefficient removal. A word on the Papp A→B: it is how fast a substance crosses the layer from the apical side. The term Cmax denotes the peak of the concentration-time curve. One may read the Papp B→A as the apparent permeability from the basolateral to the apical side of a cell layer. One may read the AUC(0-inf) as the area under the concentration-time curve extrapolated to infinity. Read a high AUC(0-inf) as more exposure. For orientation: bioavailability means the share of a dose that reaches the circulation, judged against a reference dose that is usually intravenous. A low value points to poor availability. `Cc1ccc(C(=O)NC2CC2)cc1-c1ccc2c(c1)NC(=O)C21CCCC1`: the solubility thermodynamic in [1] amounted to 3 µg/mL (≈ 8.32 µM). Moreover, the clearance in data set [2] came out at 6.6 mL/min/kg. For the same compound, the Papp A→B at 12.5 µM in data set [3] is 18 ×10⁻⁶ cm/s. Further, the maximum concentration (Cmax) stood at 367 ng/mL in [4] and 2000 ng/mL in data set [8]. The Papp B→A at 12.5 µM in [5] was found to be 10 ×10⁻⁶ cm/s. Further, in data set [6], the AUC(0-inf) is 2530 ng·h/mL. The bioavailability in data set [7] was found to be 10%. For the same compound, the Vd in [9] was 0.8 L/kg. Further, the figures for the half-life in data set [10] and in [11] were 5.3 h and under 1 h, respectively.
